According to patent US12220390B2, “Mirdametinib treatment” (SpringWorks Therapeutics, Inc., priority 2022, dated 2025):

Test system: patients ≥2 and <25 years with brain cancer
Assay: Phase I/II trial of single agent mirdametinib in children, adolescents and young adults with brain cancer
Assay type: in vivo, human
Protocol: A multi-arm phase I/II trial of mirdametinib is to be conducted in patients ≥2 and <25 years with brain cancer. Phase I requires participants have no prior exposure to MEK inhibitors and recurrent/progressive disease with biopsy-proven evidence of MAPK pathway activation. Three escalating dose levels (2 mg/m^2/dose BID, 2.5 mg/m^2/dose BID and 3 mg/m^2/dose BID) are planned using a rolling 6 design. The median age enrolled in the study is 10 years old (3-21).

[1] = patients with brain cancer, 2-3 mg/m^2/dose BID

With O=C(NOC[C@H](O)CO)c1ccc(F)c(F)c1Nc1ccc(I)cc1F (single isomer, unassigned) [mirdametinib] the dose-limiting toxicities (all three dose levels (2, 2.5 and 3 mg/m^2/dose BID), continuous dosing, patients with brain cancer) was “No dose-limiting toxicities”, the tolerability (dosed continuously in patients with brain cancer) was “well-tolerated” and the “MEK related retinopathy or cardiopathy” value [1] was “No MEK related retinopathy or cardiopathy is observed”. For the same compound, the disease progressions [1] was “No disease progressions”.
